What was measured:
Format in all cases: cell-based, human
GDF15 [1] = experiment: GDF15 secretion (ELISA) by hiPSC-CMs upon cardiotoxic drug treatment; settings: 48 h; for fold increase of media concentration of GDF15: sublethal and highest (10 µM) concentrations, normalized by DMSO-only control; for GDF15 protein concentration: 1 µM drug
Excerpt: As many anticancer drugs are cardiotoxic and GDF15 is a well-known biomarker for heart failure, we employed a human induced pluripotent stem cell-derived cardiomyocytes (hiPSC-CMs) model to investigate the effect of drug-induced cardiotoxicity on GDF15 expression in host tissues. To adequately replicate cardiotoxicity using this model, we selected drugs whose cardiotoxic effect in vivo is based on cytotoxicity to cardiomyocytes.
Figure 2 Effect of cardiotoxic drugs on hiPSC-CMs viability and GDF15 secretion and modes of action of applied drugs. (A) hiPSC-CMs viability after 48 h treatment with 20 cardiotoxic drugs. (B) Fold-change of GDF15 expression upon 48 h treatment with 20 cardiotoxic drugs and their reported modes of action. GDF15 expression upon treatment with 10 µM, sublethal drug concentrations and maximal GDF15 induction (from concentration series depicted in (C)). Mean fold-change of 4 biological replicates with a 95% confidence interval were normalized by DMSO-only control. (C) Drug-induced GDF15 expression for different drug concentrations. Fold-change of GDF15 protein concentration upon 48 h treatment with ten cardiotoxic drugs (marked with * in A and B).
(§1) Cardiotoxic drug (SCREEN-WELL® Cardiotoxicity library, BML-2850, ENZO) library was prepared by serial dilution of 10 mM stocks in DMSO to 9 different concentrations ranging from 0.001 to 10 mM, which were further diluted into assay plates to final concentrations ranging from 0.001 to 10 µM. […] The final concentration of DMSO for hiPSC-CMs assay was 0.1%. To investigate the influence of BET inhibitor treatment on doxorubicin induced GDF15 mRNA expression, hiPSC-CMs were pre-treated with 20 nM or 200 nM doxorubicin for 48 h and kept in medium without compound for 24 h before 24 h treatment with either 100 nM BI 894999 or 500 nM OTX015. […] Cancer cell lines were treated with 10 nM, 35 nM or 100 nM of BI 894999 for 4 h or 24 h (Supplementary Table S3).
(§2) For GDF15 mRNA quantification, total RNA was isolated from the cells using an RNeasy kit (Qiagen, 74106) to synthesize cDNA using a Taqman Reverse Transcription kit (Applied Biosystems, N8080234). Quantitative real-time PCR analysis was performed using QuantiNova SYBR Green PCR Kit (Qiagen, 208052) on a CFX96 Real-Time System (Bio-Rad) under the following amplification conditions: 95 °C for 2 min followed by 40 cycles of 95 °C for 5 s and 60 °C for 10 s. The primer sequences are GDF15-F: 5′-[…]-3′, GDF15-R: 5′-[…]-3′, ACTB-F: 5′-[…]-3′ and ACTB-R: 5′-[…]-3′. PCR data were analyzed using a modified relative expression software tool (REST) and the expression level of GDF15 gene was normalized to that of β-actin. For secreted GDF15 protein quantification, cell culture medium was collected after drug treatment and stored at − 20 °C until ELISA was performed using Human GDF-15 ELISA Kit (Abcam, ab155432) according to the manufacturer’s instruction. Resulting GDF15 concentrations were normalized to non-treated control and respective relative cell viability.

GDF15 [2] = experiment: GDF15 gene expression of NCI-60 cancer cell lines treated with 15 anticancer drugs (public data, linear regression); settings: data ref 34; for induction of GDF15 on average: NCI-60 cancer cell lines; for ratio of responsive cell lines (GDF15 induction): all NCI-60 cell lines, responsive: slope > 0.02 and R-squared > 0.5 within 24 h
Excerpt: To get further insights into how chemotherapy influences GDF15 expression in cancer, we analyzed public gene expression data of NCI-60 cancer cell lines treated with 15 different anticancer drugs. We used linear regression to quantify the cell line’s drug-specific responsiveness regarding GDF15 induction and categorized the cell lines as “responsive” or “resistant”. Comparing the number of responsive cell lines per drug, we found the ratio of responsive cell lines ranged from 4% for sirolimus to 71% for sorafenib (Supplementary Figure S2). Drugs with DNA damaging properties tended to induce GDF15 more strongly than drugs with other modes of action.
Figure 3 NCI-60 cell line clustering. (A) Hierarchically clustered correlation matrix of GDF15 gene expression levels by NCI-60 cell lines upon 15 drug treatments. Pearson correlation coefficients were calculated evaluating linear regression slope of GDF15 expression within the first 24 h of drug treatment. Clustering of cell lines was performed using Weighted Pair Group Method with Arithmetic Mean (WPGMA) algorithm based on Pearson correlation coefficients. Four cell line clusters were identified. Tissue types of cell lines are color coded. (B) Drug-specific fraction of responsive NCI-60 cell lines in each identified cell line cluster for 15 anticancer drugs. Responsiveness was assumed when linear regression slope of GDF15 expression within 24 h of drug treatment was > 0.02 and R-squared > 0.5. (C) Predicted basally activated or inhibited pathways for the cell line cluster based on identified differences in gene expression.
We obtained basal gene expression values and mutational status of all cancer cell lines from our in-house cancer cell line database. Gene expression data of NCI-60 after compound treatment, basal protein expression, drug sensitivity data, gene dependency data, metabolite expression and compound specifications such as IC50 values and modes of action were collected from different studies and data bases, as described in the supplementary information.
Each NCI-60 cell line was assigned to an array containing 15 drug-specific linear regression slopes of GDF15 mean fold-change. We calculated the Pearson correlation coefficient for every cell line pair to build a 60 × 60 correlation matrix. For agglomerative hierarchical clustering, we applied a “Weighted Pair Group Method with Arithmetic Mean” (WPGMA) algorithm to the resulting correlation matrix. The identified clusters represent groups of cell lines that are closely positioned to each other in this 15-dimensional data set and therefore have more similarities regarding GDF15 expression upon treatment with the 15 drugs compared to cell lines of other clusters.
Supplementary Materials and Methods
Data collection of cancer cell line properties
Gene expression data of NCI-60 upon treatment with 15 anticancer compounds were collected from NCI-
60 Transcriptional Pharmacodynamics Workbench 11. […]

GDF15 [3] = experiment: Doxorubicin-induced GDF15 secretion in hiPSC-CMs, simultaneous treatment with BET inhibitors (ELISA); settings: simultaneous 100 nM doxorubicin and 0.1 to 1000 nM BET inhibitor, 48 h
Excerpt: (§3) Host cells are known to contribute to elevated GDF15 levels in cachexia patients when exposed to drug toxicity. […] We plotted GDF15 fold-changes against the respective reported half maximal inhibitory concentrations (IC50) of each BET inhibitor for BRD2, BRD3 and BRD4, whenever available. GDF15 fold-change thereby meant the ratio of GDF15 expression induced by doxorubicin only and doxorubicin combined with BET inhibitor normalized to cell viability.
as §1, §2
Supplementary Figure S6. (A) Fold-change of GDF15 secretion by hiPSC-CMs after simultaneous
treatment with doxorubicin and seven BET Inhibitors for 48 h. Normalized to cell viability and non-treated […]

GDF15 [4] = experiment: Doxorubicin-induced GDF15 mRNA expression in hiPSC-CMs, successive treatment with BET inhibitors (qPCR)
Excerpt: as §3, §1
as §2, with “β-actin.” for “β-actin. For secreted GDF15 protein quantification, cell culture medium was collected after drug treatment and stored at − 20 °C until ELISA was performed using Human GDF-15 ELISA Kit (Abcam, ab155432) according to the manufacturer’s instruction. Resulting GDF15 concentrations were normalized to non-treated control and respective relative cell viability.”

COc1cc(NS(C)(=O)=O)ccc1Nc1c2ccccc2nc2ccccc12 [Amsacrine]
fold increase of media concentration of GDF15 (GDF15 [1]): more than threefold

CC(C)C[C@H](NC(=O)[C@H](Cc1ccccc1)NC(=O)c1cnccn1)B(O)O [Bortezomib]
fraction of responsive cell lines in cluster B (GDF15 [2]; NCI-60 cluster B): all

Cc1sc2c(c1C)C(c1ccc(Cl)cc1)=N[C@@H](CC(N)=O)c1nnc(C)n1-2 [CPI203]
effect on doxorubicin-induced GDF15 overexpression (secretion) (GDF15 [3]): suppressed

CC[C@@]1(O)C(=O)OCc2c1cc1n(c2=O)Cc2cc3ccccc3nc2-1 [Camptothecin]
fold increase of media concentration of GDF15 (GDF15 [1]): more than threefold

COc1cccc2c1C(=O)c1c(O)c3c(c(O)c1C2=O)C[C@@](O)(C(C)=O)C[C@@H]3O[C@H]1C[C@H](N)[C@H](O)[C@H](C)O1 [Daunorubicin]
GDF15 protein concentration (GDF15 [1]): exceeded the upper limit of quantification

COc1cccc2c1C(=O)c1c(O)c3c(c(O)c1C2=O)C[C@@](O)(C(=O)CO)C[C@@H]3O[C@H]1C[C@H](N)[C@H](O)[C@H](C)O1 [Doxorubicin]
fold increase of media concentration of GDF15 (GDF15 [1]): more than threefold | fraction of responsive cell lines in cluster C (GDF15 [2]; NCI-60 cluster C): 63.6% | increase of GDF15 expression on RNA level (GDF15 [4]; doxorubicin treatment (20 or 200 nM)): up to sevenfold

COc1cc([C@@H]2c3cc4c(cc3[C@@H](O[C@@H]3O[C@@H]5CO[C@@H](C)O[C@H]5[C@H](O)[C@H]3O)[C@H]3COC(=O)[C@H]23)OCO4)cc(OC)c1O [Etoposide]
fold increase of media concentration of GDF15 (GDF15 [1]): more than threefold

COc1cc2c(cc1-c1c(C)noc1C)ncc1[nH]c(=O)n([C@H](C)c3ccccn3)c12 [I-BET151]
effect on doxorubicin-induced GDF15 overexpression (secretion) (GDF15 [3]): suppressed

CC(=O)[C@]1(O)Cc2c(O)c3c(c(O)c2[C@@H](O[C@H]2C[C@H](N)[C@H](O)[C@H](C)O2)C1)C(=O)c1ccccc1C3=O [Idarubicin]
GDF15 protein concentration (GDF15 [1]): exceeded the upper limit of quantification | fold increase of media concentration of GDF15 (GDF15 [1]): more than threefold

Cc1sc2c(c1C)C(c1ccc(Cl)cc1)=N[C@@H](CC(=O)Nc1ccc(O)cc1)c1nnc(C)n1-2 [OTX015]
effect on doxorubicin-induced GDF15 overexpression (secretion) (GDF15 [3]): suppressed | effect on doxorubicin-induced GDF15 overexpression (mRNA) (GDF15 [4]; BET inhibitor given subsequently to doxorubicin): suppressed

COc1ccccc1S(=O)(=O)Nc1ccc2c(c1)CN(C)C(=O)N2 [PFI-1]
effect on doxorubicin-induced GDF15 overexpression (secretion) (GDF15 [3]): suppressed

CCN(CC)CCNC(=O)c1c(C)[nH]c(/C=C2\C(=O)Nc3ccc(F)cc32)c1C [Sunitinib]
induction of GDF15 on average (GDF15 [2]): did not lead to notable GDF15 regulation

Nc1ncn([C@@H]2O[C@H](CO)[C@@H](O)[C@H]2O)c(=O)n1 [azacytidine]
fraction of responsive cell lines in cluster D (GDF15 [2]; NCI-60 cluster D): all

CO[C@H]1C[C@@H]2CC[C@@H](C)[C@@](O)(O2)C(=O)C(=O)N2CCCC[C@H]2C(=O)O[C@H]([C@H](C)C[C@@H]2CC[C@@H](O)[C@H](OC)C2)CC(=O)[C@H](C)/C=C(\C)[C@@H](O)[C@@H](OC)C(=O)[C@H](C)C[C@H](C)/C=C/C=C/C=C/1C [sirolimus]
ratio of responsive cell lines (GDF15 induction) (GDF15 [2]): 4%

CNC(=O)c1cc(Oc2ccc(NC(=O)Nc3ccc(Cl)c(C(F)(F)F)c3)cc2)ccn1 [sorafenib]
induction of GDF15 on average (GDF15 [2]): threefold | fraction of responsive cell lines in cluster A (GDF15 [2]; NCI-60 cluster A): all | ratio of responsive cell lines (GDF15 induction) (GDF15 [2]): 71%

Reference: article PMC10372009, “Molecular basis of GDF15 induction and suppression by drugs in cardiomyocytes and cancer cells toward precision medicine” (Scientific Reports, 2023)
